Measurements taken from patent publication US20180179198A1, “TRICYCLIC MODULATORS OF TNF SIGNALING” (AbbVie Inc., priority 2015, published 2018).

molecular target: TNFα trimer (Homo sapiens, UniProt P01375); experiment: TNFα FP Competitive Binding Assay; conditions: TNFα FP competitive binding assay; class symbols A/B/C; read-out: TNF IC50
Method: TNFα FP Competitive Binding Assay
• 1. Assay Buffer: Prepare 1× Assay Buffer (Water with 47 mM HEPES, 47 mM NaCl, 0.9 mM EDTA, 0.0071% Triton X-100) by adding 25 mL of 1 M HEPES, 5 mL of 5 M NaCl, 1 mL of 0.5 M EDTA, and 375 μL of a 10% Triton X-100 stock to a fresh 500 mL bottle of water. • 2. Assay Mixture: Prepare fresh Assay Mixture containing 20 nM TNFα trimer (60 nM protein) and 1 nM 2′,7′-difluoro-3′,6′-dihydroxy-N-(2-(2-(2-((4-(isoquinolin-8-yl)-3-(4-(isoquinolin-8-yl)phenethoxy)benzyl)oxy)ethoxy)ethoxy)ethyl)-3-oxo-3H-spiro[isobenzofuran-1,9′-xanthene]-5-carboxamide probe in 1× Assay Buffer.
Compound Plate Preparation
Manual 12-point 1:3 Dilution Plates: (384 well polypropylene plates)
Top concentration of compounds, 10 mM in DMSO, dispensed in rows A-O in columns 1 and 13. Compounds are serially diluted 1:3 with DMSO in columns 2-12 or 14-24 using a 16-channel Matrix pipettor. Plates stored at −20° C.
Discovery Preps 12-point 1:3 Dilution Plates: (384 well assay plates)
Top concentration, 5 mM in DMSO, of compounds placed in rows A-O in columns 1 and 13. Compounds are serially diluted 1:3 with DMSO in columns 2-12 or 14-24. Compound solutions are dispensed into replicate assay plates at 410 nL per well. Plates stored at 4° C.
TNFα FP Competitive Binding Assay Protocol
• 1. Compound plates are warmed to rt. • 2. Fresh Assay Mixture is prepared. • 3. Assay Mixture (20 μL) is dispensed each well of 384 assay plates using a Thermo Multidrop Combi or 16-channel Matrix pipettor. If Manual 12-point 1:3 Dilution Plates are to be tested, Assay Mix is dispensed into empty plates. Discovery Preps 12-point 1:3 Dilution Plates already contain 410 nL compound solution in DMSO. • 4. For Manual 12-point 1:3 Dilution Plates, 0.7 μL is manually transferred using a 16-channel Matrix pipettor to replicate assay plates containing 20 μL Assay Mixture for a final top compound concentration of 338 μM (3.4% DMSO). • 5. For Discovery Preps 12-point 1:3 Dilution Plates, 20 μL Assay Mixture added the 410 nL compound solution already in the plates yields a final top compound concentration of 100 μM (2.0% DMSO). • 6. Background subtraction controls are wells P1-P8 containing only Assay Buffer. The low % inhibition controls are wells P9-P16 containing only Assay Mix. The high % inhibition are wells P17-P24 containing only 1 nM 2′,7′-difluoro-3′,6′-dihydroxy-N-(2-(2-(2-((4-(isoquinolin-8-yl)-3-(4-(isoquinolin-8-yl)phenethoxy)benzyl)oxy)ethoxy)ethoxy)ethyl)-3-oxo-3H-spiro[isobenzofuran-1,9′-xanthene]-5-carboxamide probe in 1× Assay Buffer. • 7. Plates are incubated at […] for 18-24 h in 37° C. incubator (CO2 is off). • 8. Prior to reading the assay, the plates are placed in a dark cabinet to equilibrate at rt for one hour. • 9. Background-subtracted fluorescence polarization (mP) is measured using a PerkinElmer Envision plate reader. • 10. Raw data is entered into Assay Explorer and dose-response curves are generated using a variable slope curve.

TNFα trimer, sequence (P01375 77-233 limits assumed): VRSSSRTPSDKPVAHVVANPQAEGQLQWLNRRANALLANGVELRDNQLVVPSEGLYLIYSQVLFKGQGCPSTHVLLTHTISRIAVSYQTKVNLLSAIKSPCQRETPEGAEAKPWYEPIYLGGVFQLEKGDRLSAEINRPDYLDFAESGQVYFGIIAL

Row | SMILES | IC50
1 | O=C1CN(c2ncc(-c3ccc4nc5n(c4n3)[C@@H](c3ccccc3)COC5)cn2)CCN1 [AB.3] | < 1 µM
2 | O=C1NCN2CCN(c3ncc(-c4ccc5nc6n(c5n4)[C@@H](c4ccccc4)COC6)cn3)CC12 (some centres unmarked) [AB.5] | < 1 µM
3 | COc1ccccc1[C@H]1COCc2nc3ccc(-c4cnc(N5CCC(O)CC5)nc4)nc3n21 [AC.1] | < 1 µM
4 | COc1ccccc1C1CCc2nc3ccc(-c4cnc(N5CCN6C(=O)NCC6C5)nc4)nc3n21 (centres unmarked) [AD.2] | < 1 µM
5 | O=C1NC[C@@H]2CN(c3ncc(-c4ccc5nc6c(n5n4)[C@@H](c4ccccc4)COC6)cn3)CCN12 [AF.2] | < 1 µM
6 | COc1ccccc1C1CCc2nc3ccc(-c4cnc(N5CCOCC5)nc4)cn3c21 (centres unmarked) [AG.1] | < 1 µM
7 | O=C1NCC2CN(c3ncc(-c4ccc5nc6n(c5c4)C(c4ccccc4F)COC6)cn3)CCN12 (centres unmarked) [AH.1] | < 1 µM
8 | O=C1NCC2CN(c3ncc(-c4ccc5nc6n(c5n4)C(C4CCCCC4)CC6)cn3)CCN12 (centres unmarked) [AH.6] | < 1 µM
9 | O=C1NCC2CN(c3ncc(-c4ccc5nc6n(c5n4)C(c4cccc(F)c4)COC6)cn3)CCN12 (centres unmarked) [AH.8] | < 1 µM
10 | CC1(c2ccccc2)CCc2nc3ccc(-c4cnc(N5CCN6C(=O)NCC6C5)nc4)nc3n21 (centres unmarked) [AH.9] | < 1 µM
11 | OC1CCN(c2ncc(-c3ccc4nc5n(c4n3)C(c3cccc(F)c3)COC5)cn2)CC1 (centres unmarked) [AI.1] | < 1 µM
12 | COc1ccccc1C1CCCc2nc3ccc(-c4cnc(N5CCC(O)CC5)nc4)cn3c21 (centres unmarked) [AJ.1] | < 1 µM
13 | COc1ccccc1C1CCCc2nc3ccc(-c4cnc(N5CCCC(O)CC5)nc4)cn3c21 (centres unmarked) [AJ.2] | < 1 µM
14 | COc1ccccc1C1CCCc2nc3ccc(-c4cnc(N5CCC(F)(CO)CC5)nc4)cn3c21 (centres unmarked) [AJ.3] | < 1 µM
15 | COc1ccccc1C1CCCc2nc3ccc(-c4cnc(N5CCC(O)C(F)(F)C5)nc4)cn3c21 (centres unmarked) [AJ.4] | < 1 µM
16 | COc1ccccc1C1CCCc2nc3ccc(-c4cnc(N5CCC(C)(O)CC5)nc4)cn3c21 (centres unmarked) [AJ.5] | < 1 µM
17 | COc1ccccc1C1CCCc2nc3ccc(-c4cnc(N5CCCOCC5)nc4)cn3c21 (centres unmarked) [AJ.7] | < 1 µM
18 | COc1ccccc1C1CCCc2nc3ccc(-c4cnc(N5CCC6(CC5)CC(O)C6)nc4)cn3c21 (centres unmarked) [AJ.8] | < 1 µM

Row | SMILES | IC50
19 | OC[C@@H]1CCCN1c1ncc(-c2ccc3nc4n(c3n2)[C@@H](c2ccccc2)CC4)cn1 [AK.1] | 1 to 10 µM
20 | CS(=O)(=O)CCn1ccc(-c2ccc3nc4n(c3n2)[C@@H](c2ccccc2)CC4)cc1=O [AK.2] | 10 to 100 µM
21 | OC(CC1CC1)c1ncc(-c2ccc3nc4n(c3n2)[C@@H](c2ccccc2)CC4)cn1 (some centres unmarked) [AL.2] | 1 to 10 µM
22 | OC(c1ncc(-c2ccc3nc4n(c3n2)[C@@H](c2ccccc2)CC4)cn1)C1CCOCC1 (some centres unmarked) [AL.3] | 1 to 10 µM
23 | COc1cccc([C@H]2CCc3nc4ccc(-c5cnc(N6CCN(C(C)=O)[C@H](C)C6)nc5)nc4n32)c1 [AM.2, 1-((R)-4-(5-((R)-8-(3-methoxyphenyl)-7,8-dihydro-6H-pyrrolo[2′,1′:2,3]imidazo[4,5-b]pyridin-2-yl)pyrimidin-2-yl)-2-methylpiperazin-1-yl)ethanone] | < 1 µM
24 | COc1ccccc1[C@H]1CCc2nc3ccc(-c4cnc(N5CCN6C(=O)NC[C@@H]6C5)nc4)nc3n21 [AO.1] | < 1 µM
25 | COc1ccccc1[C@H]1CCc2nc3ccc(-c4cnc(N5CCN6C(=O)NC[C@H]6C5)nc4)nc3n21 [AO.2] | < 1 µM
26 | COc1ccccc1[C@H]1CCc2nc3ccc(-c4cnc(N5CCN(C(=O)CO)[C@H](C)C5)nc4)nc3n21 [AO.4] | < 1 µM
27 | COc1ccccc1[C@@H]1CCc2nc3ccc(-c4cnc(N5CCN6C(=O)NC[C@@H]6C5)nc4)nc3n21 [AP.1] | 1 to 10 µM
28 | OC1CCC(Oc2cc(-c3ccc4nc5n(c4n3)[C@@H](c3ccccc3)CC5)ccn2)CC1 (some centres unmarked) [AQ.2] | < 1 µM
29 | c1ccc([C@H]2CCc3nc4ccc(-c5ccnc(OCC6COC6)c5)nc4n32)cc1 [AQ.5] | 1 to 10 µM
30 | CN1CC[C@H](Oc2cc(-c3ccc4nc5n(c4n3)[C@@H](c3ccccc3)CC5)ccn2)C1 [AQ.8] | 1 to 10 µM
31 | c1ccc([C@H]2CCc3nc4ccc(-c5ccnc(OC6CCCC6)c5)nc4n32)cc1 [AS.2] | 1 to 10 µM
32 | COC(=O)C1CCC(Oc2cc(-c3ccc4nc5n(c4n3)[C@@H](c3ccccc3)CC5)ccn2)C1 (some centres unmarked) [AS.5] | 1 to 10 µM
33 | N#C[C@@H]1CC[C@@H](Oc2cc(-c3ccc4nc5n(c4n3)[C@@H](c3ccccc3)CC5)ccn2)C1 [AS.7] | 1 to 10 µM
34 | c1ccc([C@H]2CCc3nc4ccc(-c5ccnc(OC6CCCNC6)c5)nc4n32)cc1 (some centres unmarked) [AT.1] | 1 to 10 µM
35 | c1ccc([C@H]2CCc3nc4ccc(-c5ccnc(O[C@@H]6CCNC6)c5)nc4n32)cc1 [AT.2] | 1 to 10 µM
36 | c1ccc([C@H]2CCc3nc4ccc(-c5ccnc(OC6CCC67CCNC7)c5)nc4n32)cc1 (some centres unmarked) [AT.3] | 1 to 10 µM

The remaining lines, values ahead:

Row | IC50 | SMILES
37 | < 1 µM | OC1CCN(c2ncc(-c3ccc4nc5n(c4n3)[C@@H](c3ccccc3)COC5)cn2)CC1 [AB.4]
38 | < 1 µM | COc1ccccc1C1CCc2nc3ccc(-c4cnc(N5CCC(O)CC5)nc4)nc3n21 (centres unmarked) [AD.1]
39 | < 1 µM | COc1ccccc1C1CCCc2nc3ccc(-c4cnc(N5CCC(O)CC5)nc4)nc3n21 (centres unmarked) [AE.1]
40 | < 1 µM | O=C1NC[C@@H]2CN(c3ncc(-c4ccc5nc6c(n5c4)[C@@H](c4ccccc4)COC6)cn3)CCN12 [AF.1]
41 | < 1 µM | O=C1NCC2CN(c3ncc(-c4ccc5nc6n(c5c4)C(c4cccc(Cl)c4)COC6)cn3)CCN12 (centres unmarked) [AH.2]
42 | < 1 µM | O=C1NCC2CN(c3ncc(-c4ccc5nc6n(c5c4)[C@@H](c4ccccc4Cl)COC6)cn3)CCN12 (some centres unmarked) [AH.3]
43 | < 1 µM | O=C1NCC2CN(c3ncc(-c4ccc5nc6n(c5c4)C(c4cccc(C(F)(F)F)c4)COC6)cn3)CCN12 (centres unmarked) [AH.4]
44 | < 1 µM | O=C1NCC2CN(c3ncc(-c4ccc5nc6n(c5n4)[C@@H](C4CCCCC4)CC6)cn3)CCN12 (some centres unmarked) [AH.5]
45 | < 1 µM | O=C1NCC2CN(c3ncc(-c4ccc5nc6n(c5n4)C(c4ccccc4F)COC6)cn3)CCN12 (centres unmarked) [AH.7]
46 | < 1 µM | COc1ccccc1C1CCCc2nc3ccc(-c4cnc(N5CCN6C(=O)NCC6C5)nc4)cn3c21 (centres unmarked) [AJ.6]
47 | 10 to 100 µM | CC(C)(O)Cn1ccc(-c2ccc3nc4n(c3n2)[C@@H](c2ccccc2)CC4)cc1=O [AK.3]
48 | 1 to 10 µM | CC(O)c1ncc(-c2ccc3nc4n(c3n2)[C@@H](c2ccccc2)CC4)cn1 (some centres unmarked) [AL.1]
49 | 1 to 10 µM | CC(O)(c1ncc(-c2ccc3nc4n(c3n2)[C@@H](c2ccccc2)CC4)cn1)C1CCOCC1 (some centres unmarked) [AL.4]
50 | 1 to 10 µM | CC(O)(CC1CC1)c1ncc(-c2ccc3nc4n(c3n2)[C@@H](c2ccccc2)CC4)cn1 (some centres unmarked) [AL.5]
51 | < 1 µM | COc1cccc([C@H]2CCc3nc4ccc(-c5cnc(N6CCN7C(=O)NC[C@@H]7C6)nc5)nc4n32)c1 [AM.1]
52 | 10 to 100 µM | COc1cccc([C@@H]2CCc3nc4ccc(-c5cnc(N6CCN7C(=O)NC[C@@H]7C6)nc5)nc4n32)c1 [AN.1]
53 | < 1 µM | COc1ccccc1[C@H]1CCc2nc3ccc(-c4cnc(N5CCC(O)CC5)nc4)nc3n21 [AO.3]
54 | < 1 µM | OC1CCC(Oc2cc(-c3ccc4nc5n(c4n3)[C@@H](c3ccccc3)CC5)ccn2)C1 (some centres unmarked) [AQ.1]
55 | 1 to 10 µM | c1ccc([C@H]2CCc3nc4ccc(-c5ccnc(OC6COC6)c5)nc4n32)cc1 [AQ.3]
56 | 1 to 10 µM | OC1CCCC(Oc2cc(-c3ccc4nc5n(c4n3)[C@@H](c3ccccc3)CC5)ccn2)C1 (some centres unmarked) [AQ.4]
57 | 1 to 10 µM | CN1CC[C@@H](Oc2cc(-c3ccc4nc5n(c4n3)[C@@H](c3ccccc3)CC5)ccn2)C1 [AQ.6]
58 | 1 to 10 µM | OCCOc1cc(-c2ccc3nc4n(c3n2)[C@@H](c2ccccc2)CC4)ccn1 [AQ.7]
59 | 1 to 10 µM | O[C@H]1CC[C@@H](Oc2cc(-c3ccc4nc5n(c4n3)[C@@H](c3ccccc3)CC5)ccn2)CC1 [AR.1]
60 | 1 to 10 µM | c1ccc([C@H]2CCc3nc4ccc(-c5ccnc(OC6CCOC6)c5)nc4n32)cc1 (some centres unmarked) [AS.1]
61 | 1 to 10 µM | c1ccc([C@H]2CCc3nc4ccc(-c5ccnc(OC6CCCCC6)c5)nc4n32)cc1 [AS.3]
62 | 1 to 10 µM | COC(=O)C1CCC(Oc2cc(-c3ccc4nc5n(c4n3)[C@@H](c3ccccc3)CC5)ccn2)CC1 (some centres unmarked) [AS.4]
